From patent US9169254B2, “Spiroimidazolone derivative” (Chugai Seiyaku Kabushiki Kaisha, priority 2009, dated 2015) come the findings set out here.

In the assay the target is T1, human PTH1 receptor (Homo sapiens, UniProt Q03431).
T1 sequence (Q03431 27-593): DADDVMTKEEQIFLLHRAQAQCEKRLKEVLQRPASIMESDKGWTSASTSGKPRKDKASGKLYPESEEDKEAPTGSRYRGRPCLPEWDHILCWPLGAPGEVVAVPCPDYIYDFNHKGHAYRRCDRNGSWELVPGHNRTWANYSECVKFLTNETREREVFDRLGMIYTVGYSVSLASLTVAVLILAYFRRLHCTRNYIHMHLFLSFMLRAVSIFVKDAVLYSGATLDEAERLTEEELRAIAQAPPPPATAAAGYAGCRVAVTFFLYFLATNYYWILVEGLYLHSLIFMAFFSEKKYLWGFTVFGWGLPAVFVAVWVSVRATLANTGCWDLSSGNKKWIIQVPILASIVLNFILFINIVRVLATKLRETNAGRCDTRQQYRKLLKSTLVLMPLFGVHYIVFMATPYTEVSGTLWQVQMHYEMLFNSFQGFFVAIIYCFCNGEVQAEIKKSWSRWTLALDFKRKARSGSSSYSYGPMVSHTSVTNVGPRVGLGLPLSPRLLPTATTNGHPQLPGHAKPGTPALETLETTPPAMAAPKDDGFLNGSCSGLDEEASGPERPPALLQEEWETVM
Briefly: In vitro cAMP signal activity in HKRK-B7 cells (LLC-PK1 cells overexpressing the human PTH1 receptor). The conditions noted are these: HKRK-B7 cells; compound at 1×10^−3 M; cAMP produced as percentage of that produced by hPTH(1-34) at 100 nM. It counts as cell-based.
For `Cc1cc(N2C[C@H](CO)OC2=O)ccc1CCS(=O)(=O)N1CCC2(CC1)N=C(c1cccc(C(F)(F)F)c1)NC2=O` [Compound 296, 8-{2-[4-((R)-5-hydroxymethyl-2-oxo-oxazolidin-3-yl)-2-methyl-phenyl]-ethanesulfonyl}-2-(3-trifluoromethyl-phenyl)-1,3,8-triaza-spiro[4.5]dec-1-en-4-one], the “cAMP production activity (%)” value is 65%.
Then `CC1CCC(C2=NC3(CCN(S(=O)(=O)CCCc4cccc5[nH]ccc45)CC3)C(=O)N2)CC1` (stereo not drawn) [Compound 311, 8-[3-(1H-indol-4-yl)-propane-1-sulfonyl]-2-(4-methyl-cyclohexyl)-1,3,8-triaza-spiro[4.5]dec-1-en-4-one], with 67%; and `C/C=C/C1=NC2(CCN(S(=O)(=O)CCc3ccc(C(=O)N(C)C)cc3C)CC2)C(=O)N1` [Compound 141, 3,N,N-trimethyl-4-{2-[4-oxo-2-((E)-propenyl)-1,3,8-triaza-spiro[4.5]dec-1-ene-8-sulfonyl]-ethyl}-benzamide], with 32%.
Turning to `O=C1NC(CCc2cccc3ccccc23)=NC12CCN(S(=O)(=O)c1cccc(Cl)c1)CC2` [Compound 34, 8-(3-chloro-benzenesulfonyl)-2-(2-naphthalen-1-yl-ethyl)-1,3,8-triaza-spiro[4.5]dec-1-en-4-one], the “cAMP production activity (%)” value was 16%.
On to `[2H]C([2H])([2H])N(C(=O)OC(C)(C)C)c1cc(C)c(/C=C/S(=O)(=O)N2CCC3(CC2)N=C(c2ccc(F)c(C(F)(F)F)c2)NC3=O)c(C)c1` [Compound 640, (4-{(E)-2-[2-(4-fluoro-3-trifluoromethyl-phenyl)-4-oxo-1,3,8-triaza-spiro[4.5]dec-1-ene-8-sulfonyl]-vinyl}-3,5-dimethyl-phenyl)-[1,1,1-^2H3]methyl-carbamic acid tert-butyl ester], for which the “cAMP production activity (%)” value came out at 26%.
Then `Cc1cc(C(=O)N2CCC(O)(CF)CC2)cc(C)c1CCS(=O)(=O)N1CCC2(CC1)N=C(c1ccc(C(F)(F)F)c(OCC(F)(F)C(F)F)c1)NC2=O` [Compound 1279, 8-{2-[4-(4-fluoromethyl-4-hydroxy-piperidine-1-carbonyl)-2,6-dimethyl-phenyl]-ethanesulfonyl}-2-[3-(2,2,3,3-tetrafluoro-propoxy)-4-trifluoromethyl-phenyl]-1,3,8-triaza-spiro[4.5]dec-1-en-4-one], with 113%; and `CC(=O)NC[C@H]1CCC(=O)N1c1cc(C)c(/C=C/S(=O)(=O)N2CCC3(CC2)N=C(c2cccc(OC(F)(F)F)c2)NC3=O)c(C)c1` [Compound 610, N—[(R)-1-(3,5-dimethyl-4-{(E)-2-[4-oxo-2-(3-trifluoromethoxy-phenyl)-1,3,8-triaza-spiro[4.5]dec-1-ene-8-sulfonyl]-vinyl}-phenyl)-5-oxo-pyrrolidin-2-ylmethyl]-acetamide], with 85%; and `CC(=O)N(C)c1c(C)cc(/C=C/S(=O)(=O)N2CCC3(CC2)N=C(C2CCC(C)CC2)NC3=O)cc1C` (stereo not drawn) [Compound 584, N-(2,6-dimethyl-4-{(E)-2-[2-(4-methyl-cyclohexyl)-4-oxo-1,3,8-triaza-spiro[4.5]dec-1-ene-8-sulfonyl]-vinyl}-phenyl)-N-methyl-acetamide], with 24%.
As to `CON(C)C(=O)c1cc(C)c(CCS(=O)(=O)N2CCC3(CC2)N=C(C2CCC(C)CC2)NC3=O)c(C)c1` (stereo not drawn) [Compound 1180, N-methoxy-3,5,N-trimethyl-4-{2-[2-(4-methyl-cyclohexyl)-4-oxo-1,3,8-triaza-spiro[4.5]dec-1-ene-8-sulfonyl]-ethyl}-benzamide], the “cAMP production activity (%)” value stood at 73%.
As for `[2H]C([2H])([2H])N(C(N)=O)c1cc(C)c(/C=C/S(=O)(=O)N2CCC3(CC2)N=C(c2ccc(F)c(C(F)(F)F)c2)NC3=O)c(C)c1` [Compound 1312, 1-(4-{(E)-2-[2-(4-fluoro-3-trifluoromethyl-phenyl)-4-oxo-1,3,8-triaza-spiro[4.5]dec-1-ene-8-sulfonyl]-vinyl}-3,5-dimethyl-phenyl)-1-[1,1,1-^2H3]methyl-urea], the “cAMP production activity (%)” value stood at 105%.
On to `O=C(Nc1ccncc1)c1cccc(CCS(=O)(=O)N2CCC3(CC2)N=C(C2CCCCC2)NC3=O)c1` [Compound 422, 3-[2-(2-cyclohexyl-4-oxo-1,3,8-triaza-spiro[4.5]dec-1-ene-8-sulfonyl)-ethyl]-N-pyridin-4-yl-benzamide], for which the “cAMP production activity (%)” value was 14%.
Then `Cc1cc(N(C)C(N)=O)cc(C)c1CCS(=O)(=O)N1CCC2(CC1)N=C(C(C1CC1)C1CC1)NC2=O` [Compound 1052, 1-{4-[2-(2-dicyclopropylmethyl-4-oxo-1,3,8-triaza-spiro[4.5]dec-1-ene-8-sulfonyl)-ethyl]-3,5-dimethyl-phenyl}-1-methyl-urea], with 62%.
Then `O=C1NC(C2CCCCC2)=NC12CCN(S(=O)(=O)/C=C/c1ccc(CCO)cc1)CC2` [Compound 187, 2-cyclohexyl-8-{(E)-2-[4-(2-hydroxy-ethyl)-phenyl]-ethenesulfonyl}-1,3,8-triaza-spiro[4.5]dec-1-en-4-one], with 12%.
Then `CC1CCC(C2=NC3(CCN(S(=O)(=O)CCc4cccc5[nH]ccc45)CC3)C(=O)N2)CC1` (stereo not drawn) [Compound 306, 8-[2-(1H-indol-4-yl)-ethanesulfonyl]-2-(4-methyl-cyclohexyl)-1,3,8-triaza-spiro[4.5]dec-1-en-4-one], with 45%; and `Cc1cc(C(=O)N(C)C)ccc1CCS(=O)(=O)N1CCC2(CC1)N=C(c1ccc(F)cc1Cl)NC2=O` [Compound 90, 4-{2-[2-(2-chloro-4-fluoro-phenyl)-4-oxo-1,3,8-triaza-spiro[4.5]dec-1-ene-8-sulfonyl]-ethyl}-3,N,N-trimethyl-benzamide], with 88%.
Turning to `Cc1cc(N2C(=O)CNC2=O)ccc1/C=C/S(=O)(=O)N1CCC2(CC1)N=C(c1cccc(OC(F)(F)F)c1)NC2=O` [Compound 618, 3-(3-methyl-4-{(E)-2-[4-oxo-2-(3-trifluoromethoxy-phenyl)-1,3,8-triaza-spiro[4.5]dec-1-ene-8-sulfonyl]-vinyl}-phenyl)-imidazolidine-2,4-dione], the “cAMP production activity (%)” value was found to be 121%.
As for `O=C1NC(C2CCCN(S(=O)(=O)c3ccccc3)C2)=NC12CCN(S(=O)(=O)c1cccc(Cl)c1)CC2` (stereo not drawn) [Compound 41, 2-(1-benzenesulfonyl-piperidin-3-yl)-8-(3-chloro-benzenesulfonyl)-1,3,8-triaza-spiro[4.5]dec-1-en-4-one], the “cAMP production activity (%)” value is listed as 21%.
Then `Cc1cc(CN2C(=O)CNC2=O)cc(C)c1/C=C/S(=O)(=O)N1CCC2(CC1)N=C(C1CCC(CCC(F)(F)F)CC1)NC2=O` (stereo not drawn) [Compound 554, 3-[3,5-dimethyl-4-((E)-2-{4-oxo-2-[4-(3,3,3-trifluoro-propyl)-cyclohexyl]-1,3,8-triaza-spiro[4.5]dec-1-ene-8-sulfonyl}-vinyl)-benzyl]-imidazolidine-2,4-dione], with 82%; and `Cc1cc(N(C2CCC(O)CC2)S(C)(=O)=O)cc(C)c1/C=C/S(=O)(=O)N1CCC2(CC1)N=C(c1cccc(OC(F)(F)F)c1)NC2=O` (stereo not drawn) [Compound 715, N-(3,5-dimethyl-4-{(E)-2-[4-oxo-2-(3-trifluoromethoxy-phenyl)-1,3,8-triaza-spiro[4.5]dec-1-ene-8-sulfonyl]-vinyl}-phenyl)-N-(4-hydroxy-cyclohexyl)-methane sulfonamide], with 20%.
Turning to `CC(=O)NCCNC(=O)CNc1ccc(/C=C/S(=O)(=O)N2CCC3(CC2)N=C(C2CCCCC2)NC3=O)c(C(F)(F)F)c1` [Compound 498, N-(2-acetylamino-ethyl)-2-{4-[(E)-2-(2-cyclohexyl-4-oxo-1,3,8-triaza-spiro[4.5]dec-1-ene-8-sulfonyl)-vinyl]-3-trifluoromethyl-phenylamino}-acetamide], the “cAMP production activity (%)” value worked out at 53%.
For `Cc1cc(OCCC(O)CO)ccc1CCS(=O)(=O)N1CCC2(CC1)N=C(c1cccc(C(F)(F)F)c1)NC2=O` (stereo not drawn) [Compound 284, 8-{2-[4-(3,4-dihydroxy-butoxy)-2-methyl-phenyl]-ethanesulfonyl}-2-(3-trifluoromethyl-phenyl)-1,3,8-triaza-spiro[4.5]dec-1-en-4-one] the value was 82%; for `CCCS(=O)(=O)CCCCCC1=NC2(CCN(S(=O)(=O)/C=C/c3c(C)cc(N(C)C(N)=O)cc3C)CC2)C(=O)N1` [Compound 1318, 1-[3,5-Dimethyl-4-((E)-2-{4-oxo-2-[5-(propane-1-sulfonyl)-pentyl]-1,3,8-triaza-spiro[4.5]dec-1-ene-8-sulfonyl}-vinyl)-phenyl]-1-methyl-urea], 19%; for `CCCCC1CCC(NC2=NC3(CCN(S(=O)(=O)CCc4ccc(C(=O)N(C)C)cc4C)CC3)C(=O)N2)CC1` (stereo not drawn) [Compound 1404, 4-{2-[2-(4-butyl-cyclohexylamino)-4-oxo-1,3,8-triaza-spiro[4.5]dec-1-ene-8-sulfonyl]-ethyl}-3,N,N-trimethyl-benzamide], 64%.
For the compound `Cc1cc(CN2C(=O)CNC2=O)cc(C)c1CCS(=O)(=O)N1CCC2(CC1)N=C(C1CCC(C)CC1)NC2=O` (stereo not drawn) [Compound 779, 3-(3,5-dimethyl-4-{2-[2-(4-methyl-cyclohexyl)-4-oxo-1,3,8-triaza-spiro[4.5]dec-1-ene-8-sulfonyl]-ethyl}-benzyl)-imidazolidine-2,4-dione], the “cAMP production activity (%)” value stood at 53%.
